{
  "source": "paper PMC10374108",
  "about": "“Structural and biochemical characterization of the key components of an auxin degradation operon from the rhizosphere bacterium Variovorax” (PLOS Biology, 2023)",
  "design_in_all_cases": "species or system Variovorax paradoxus CL14",
  "key": {"[1]": {"biological_target": "IadI (Variovorax paradoxus, UniProt A0A0H2M433)", "sequence (A0A0H2M433 entry or part of it)": "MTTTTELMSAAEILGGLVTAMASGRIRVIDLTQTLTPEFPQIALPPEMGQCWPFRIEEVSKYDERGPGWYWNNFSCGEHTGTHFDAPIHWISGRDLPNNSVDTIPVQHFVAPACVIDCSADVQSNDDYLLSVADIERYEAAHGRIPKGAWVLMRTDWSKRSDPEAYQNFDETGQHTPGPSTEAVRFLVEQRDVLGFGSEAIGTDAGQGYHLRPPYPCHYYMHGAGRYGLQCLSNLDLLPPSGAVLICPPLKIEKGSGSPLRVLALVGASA", "experiment": "ITC, IAA binding to IadI", "procedure": "(§1) ITC experiments were performed using a MicroCal PEAQ-ITC system (Malvern). All the experiments were performed at […] in a buffer containing 25 mM Tris-HCl (pH 7.5) and 150 mM NaCl (unless otherwise stated). […] Data was analyzed using the MicroCal PEAQ-ITC analysis software. All the measurements were repeated at least 2 times."}, "[2]": {"biological_target": "IadK2 mutants (Variovorax paradoxus, UniProt T1X8R6, S104V)", "sequence (T1X8R6 entry or part of it S104V)": "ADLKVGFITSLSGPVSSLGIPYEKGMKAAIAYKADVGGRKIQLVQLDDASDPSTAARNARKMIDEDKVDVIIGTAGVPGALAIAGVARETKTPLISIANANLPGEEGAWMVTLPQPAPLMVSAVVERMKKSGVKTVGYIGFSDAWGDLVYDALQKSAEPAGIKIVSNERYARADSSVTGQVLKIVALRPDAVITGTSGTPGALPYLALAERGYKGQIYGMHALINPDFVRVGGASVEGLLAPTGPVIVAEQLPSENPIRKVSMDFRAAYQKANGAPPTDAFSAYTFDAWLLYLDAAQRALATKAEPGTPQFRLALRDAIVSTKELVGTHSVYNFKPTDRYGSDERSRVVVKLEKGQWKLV", "experiment": "ITC, IAA binding to IadK2 mutants", "settings": "Kd", "procedure": "as §1"}, "[3]": {"biological_target": "IadK2 mutants", "experiment": "ITC, IAA binding to IadK2 mutants", "settings": "IadK2 mutant W172L, replicates", "procedure": "as §1"}, "[4]": {"biological_target": "IadK2 mutants (Variovorax paradoxus, UniProt T1X8R6, S104V/W172L)", "sequence (T1X8R6 entry or part of it S104V/W172L)": "as the sequence (T1X8R6 entry or part of it S104V) above, with W145L counted along it", "experiment": "ITC, IAA binding to IadK2 mutants", "procedure": "as §1"}, "[5]": {"biological_target": "IadK2 mutants (Variovorax paradoxus, UniProt T1X8R6, Y311A)", "sequence (T1X8R6 entry or part of it Y311A)": "as the sequence (T1X8R6 entry or part of it S104V) above, with V77S, Y284A counted along it", "experiment": "ITC, IAA binding to IadK2 mutants", "settings": "Kd", "procedure": "as §1"}, "[6]": {"biological_target": "T1, IadC (Variovorax paradoxus, UniProt C5CSP5)", "T1 sequence (C5CSP5 1-330)": "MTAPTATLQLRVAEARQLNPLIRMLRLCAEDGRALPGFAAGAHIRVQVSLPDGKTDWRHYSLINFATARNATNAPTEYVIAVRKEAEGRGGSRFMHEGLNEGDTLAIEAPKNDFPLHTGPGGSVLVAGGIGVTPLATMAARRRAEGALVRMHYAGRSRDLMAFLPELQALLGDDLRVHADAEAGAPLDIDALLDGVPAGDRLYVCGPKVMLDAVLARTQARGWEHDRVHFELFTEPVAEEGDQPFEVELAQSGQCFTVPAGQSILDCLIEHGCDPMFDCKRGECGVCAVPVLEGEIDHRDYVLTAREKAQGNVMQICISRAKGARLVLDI", "experiment": "ITC, IAA binding to IadC", "procedure": "as §1"}},
  "note": "“And” between values parts separate entries of the source, which are not always exact repeats. Equal entries are not always repeated.",
  "data": [
    {"smiles": "O=C(O)Cc1c[nH]c2ccccc12", "note": "[IAA, indole-3-acetic acid]", "values": [
      {"measurement": "IAA binding (ITC)", "setting": "[1]", "value": "no binding detected"},
      {"measurement": "Kd", "setting": "[1]; ITC, replicates", "value": "> 100", "unit": "µM"},
      {"measurement": "Kd", "setting": "[2]; IadK2 S104V, IAA, mean ± SD", "value": "1.1 ± 0.3", "unit": "µM"},
      {"measurement": "Kd", "setting": "[2]; IadK2 mutant S104V, replicates", "value": "0.88 µM and 0.9 µM and 1.5 µM"},
      {"measurement": "Kd", "setting": "[3]", "value": "weak binding"},
      {"measurement": "Kd", "setting": "[4]; IadK2 mutant W172L/S104V, replicates", "value": "> 100", "unit": "µM"},
      {"measurement": "Kd", "setting": "[4]; Kd, IadK2 W172L/S104V, IAA", "value": "> 100", "unit": "µM"},
      {"measurement": "Kd", "setting": "[4]; Kd, IadK2 mutant W172L/S104V, replicates", "value": "> 100", "unit": "µM"},
      {"measurement": "Kd", "setting": "[5]; IadK2 Y311A, IAA, mean ± SD", "value": "21 ± 3", "unit": "µM"},
      {"measurement": "Kd", "setting": "[5]; IadK2 mutant Y311A, replicates", "value": "17 µM and 24 µM and 22 µM"},
      {"measurement": "IAA binding (ITC)", "setting": "[6]", "value": "no binding detected"},
      {"measurement": "Kd", "setting": "[6]; ITC, replicates", "value": "> 100", "unit": "µM"}
    ]}
  ]
}
